US20260317367A1, “SALTS INCLUDING CRYSTALLINE SALTS OF 25-HYDROXY-CHOLEST-5-EN-3-SULFATE AND METHODS FOR PREPARING SAME” (Durect Corporation, priority 2022, published 2026)
Structures can show the parent of a compound that is named as a salt. One block for each molecule: values may come before it.

Legend:
Format in all cases: physicochemical
[1] = Overall rank order of powder flowability (angle of repose and Hausner ratio); settings: for Powder flowability, overall (in words): angle of repose and compressibility index/Hausner ratio combined; for Angle of Repose Rank Order / Hausner Ratio Rank Order / Overall Rank Order (Total Score): lower is better flow; for Overall Rank Order (Total Score): sum of both ranks
Description: Table C5 was generated by adding the relative rank order of the 25HC3S salts for angle of repose and Hausner ratio results, and creating an Over All Rank Order of the salts powder flowability. The salts with the lower overall rank order score had better powder flowability.

[2] = Appearance (color, clumping, flowability) of stored 25HC3S salts
Method: Approximately 25 mg of each crystalline 25HC3S salt was added to 20 mL glass vials and each powder weight was recorded. Four vials were prepared for each salt and stored at 2-8° C. or 80° C. according to Table B2. The samples were scheduled initially to pull for testing at 3 weeks and 6 weeks' time points.
For those […] salts, the remaining vials stored at 2-8° C. for 3 weeks were allocated for storage at 60° C. for 1 week. Additional stability data was generated according to Table B3.
For appearance, each unopened vial was visually examined for color, clumping, and flowability.

[3] = Hausner ratio and compressibility index of 25HC3S salts; settings: for Compressibility Index: Table C3 heads this index in %
Method: Although there are some variations in the method of determining the compressibility index and Hausner ratio, the basic procedure is to measure the unsettled apparent volume, VO, and the final tapped volume, Vf, of the powder after tapping the material until no further volume changes occur. The compressibility index and the Hausner ratio are calculated as follows: […]
Both the Hausner ratio and the compressibility index are empirically established. The Hausner ratio and compressibility index are not absolute properties of a material; its value can vary depending on the methodology used to determine them. In this case, since the 14 salts of 25HC3S were measured the same way, the relative values should be accurate.
Table C3, from USP <1174> Powder Flow, describes the flow character of the powder based on the compressibility index and Hausner ratio values.
Powder was carefully poured into a 5 mL glass graduated cylinder (to contain) until it was close to or at 5.0 mL. This initial volume was recorded as Vo. The graduated cylinder was tapped on a hard surface for 200 times and the volume was recorded. The cylinder was tapped 100 times more, and the final volume Vf was recorded. Typically, the volume after 200 taps was identical to after 300 taps, or within 0.1 mL.

[4] = Thermogravimetric analysis (TGA), weight loss
Method: Differential scanning calorimetry (DSC) is a thermoanalytical technique where the difference in the amount of heat required to increase the temperature of a sample and reference is measured as a function of temperature. Using this technique, phase transitions of a sample can be measured such as melting point. Decomposition can also be observed by DSC as can dehydration events. In the context of DSC measurements, there is also variability and the term “about” means ±1° C., and such variability is to be understood whether a DSC measurement is prefaced by “about” or not unless specified otherwise. Exemplary methods for collecting DSC data are set forth in Example 21. Thermogravimetric analysis, sometimes referred to as, thermal gravimetric analysis (TGA) is a thermal method of thermal analysis where the mass of a sample is measured as a function of time as the sample temperature changes. For example, when samples disclosed herein are heated and a loss in mass is measured prior to decomposition, this is likely indicative of the loss of water from the sample and may indicate that the sample being heated is a hydrate. Exemplary methods for collecting TGA are set forth in Example 23.
TG analysis was performed using a Mettler-Toledo TGA/DSC3 analyzer. Temperature and enthalpy adjustments were performed using indium, tin, and zinc, and then verified with indium. The balance was verified with calcium oxalate. The sample was placed in an open aluminum pan. The pan was hermetically sealed, the lid pierced, then inserted into the TG furnace. A weighed aluminum pan configured as the sample pan was placed on the reference platform. The furnace was heated under nitrogen. Each sample was heated from ambient temperature to 350° C. at 10° C./min. Although thermograms are plotted by reference temperature (x-axis), results are reported according to sample temperatures.

[5] = Final pH of the solubility sample solutions in aqueous media; settings: for pH of the solubility sample, 0.9% Sodium Chloride: 0.9% sodium chloride (blank 5.8); for pH of the solubility sample, 5% Dextrose: 5% dextrose (blank 4.7); for pH of the solubility sample, FaSSGF: FaSSGF (blank 1.5, 1.6); for pH of the solubility sample, FaSSIF: FaSSIF (blank 6.5, 6.5); for pH of the solubility sample, FeSSIF: FeSSIF (blank 4.9, 5.0); for pH of the solubility sample, Water: water (blank 6.3)
Method: 25HC3S salts were weighed in 8 mL or 4 mL glass vials with Teflon coated screw caps. Aliquots of each solvent were added to each sample and vortexed for about one minute until excess solid remained. Samples were placed on shaker at room temperature with 210 motion per minute shaking.
After one day, samples were pulled and checked if excess solid was present. About 1.5 mL aliquot of each sample was centrifuged at 12000 rpm for 12 to 15 minutes. […] Aliquots of the top clear solution of each centrifuged sample in MeOH, EtOH, IPA and ACN were diluted with diluent (water:MeOH 95:5) and assayed by HPLC. Samples of the salts in aqueous media were assayed by HPLC without dilution.
5.1 Solubility of 25HC3S Salts in Aqueous Media

[6] = Angle of repose of 25HC3S salts; settings: for Flow Property per USP<1174> Powder Flow: classification by angle of repose
Method: Angle of repose is measured as follows. Powder is poured from a funnel onto a flat surface until a cone of powder is created. The angle of repose is calculated according to the following equation: […]
Table C1, from USP<1174> Powder Flow, describes the powder flow properties correlating to the angles of repose.
The lower the angle of repose, the more flowable is a material. Powder with an angle of repose between 25° to 30° will show excellent flow through a hopper, feed frame, die table and die bore smoothly. From 41° to greater than 66°, you may experience powder flow difficulties like rat-holing or bridging within the hopper.
The angle of repose was determined by pouring approximately 2 grams of a 25HC3S salt through a 7 mm inner diameter plastic tube into the center of a 21.14 mm diameter rubber O-ring, resulting in the formation of a powder cone of fixed diameter. The height of the cone was estimated with calipers.

[7] = listed as 25HC3S hydroxyethylammonium
[8] = listed as 25HC3S hydroxyethylpyrrolidinium

Powder flowability, overall (in words) ([1]; listed as choline): next group
Angle of Repose Rank Order ([1]; listed as 25HC3S choline): 4
Hausner Ratio Rank Order ([1]; listed as 25HC3S choline): 15
Overall Rank Order (Total Score) ([1]; listed as 25HC3S choline): 19
Appearance ([2]; 2-8° C., 3 wk, listed as 25HC3S choline): White, free flowing powder with clumping
Appearance ([2]; 2-8° C., 5 wk): White, free flowing powder with clumping
Appearance ([2]; 80° C., 3 wk, listed as 25HC3S choline): White, free flowing powder with clumping
Appearance ([2]; 80° C., 5 wk): White, free flowing powder with clumping
Compressibility Index ([3]; listed as 25HC3S choline): 42
Hausner Ratio ([3]; listed as 25HC3S choline): 1.72
Weight loss by TGA up to 198° C. (in words) ([4]; up to 198° C.): negligible weight loss
pH of the solubility sample, 0.9% Sodium Chloride ([5]; listed as 25HC3S choline): 8.2
pH of the solubility sample, 5% Dextrose ([5]; listed as 25HC3S choline): 7.3
pH of the solubility sample, FaSSGF [5]: 1.6
pH of the solubility sample, FaSSIF ([5]; listed as 25HC3S choline): 6.5
pH of the solubility sample, FeSSIF [5]: 5.0
pH of the solubility sample, Water ([5]; listed as 25HC3S choline): 8.8
Angle of Repose ([6]; listed as 25HC3S choline): 34.9 degrees
Angle of Repose, Rounded Whole Number ([6]; listed as 25HC3S choline): 35 degrees
Compound: CC(CCCC(C)(C)O)C1CCC2C3CC=C4CC(OS(=O)(=O)O)CCC4(C)C3CCC12C (centres unmarked) [Salt #4]

Powder flowability, overall (in words) ([1]; listed as crystalline 25HC3S hydroxyethylammonium): relatively good flowability
Powder flowability, overall (in words) ([1]; listed as hydroxyethylammonium): top three
Angle of Repose Rank Order [1, 7]: 1
Hausner Ratio Rank Order [1, 7]: 1
Overall Rank Order (Total Score) [1, 7]: 2
Appearance ([2]; 2-8° C., 3 wk, listed as 25HC3S hydroxyethylammonium): White, free flowing powder, no clumping
Appearance ([2]; 60° C., 1 wk (after 3 weeks at 2-8° C.), listed as 25HC3S hydroxyethylammonium): Light brown, partially melted material
Appearance after 3 weeks at 80° C. ([2]; 80° C.): completely burned
Appearance ([2]; 80° C., 3 wk, listed as 25HC3S hydroxyethylammonium): Dark brown, partially melted material
Compressibility Index [3, 7]: 18
Hausner Ratio [3, 7]: 1.22
Weight loss by TGA, ambient to 134° C. ([4]; ambient to 134° C.): about 2.7%
pH of the solubility sample, 0.9% Sodium Chloride [5, 7]: 8.2
pH of the solubility sample, 5% Dextrose [5, 7]: 7.0
pH of the solubility sample, FaSSGF [5]: 1.6
pH of the solubility sample, FaSSIF [5]: 6.6
pH of the solubility sample, FeSSIF [5]: 5.0
pH of the solubility sample, Water [5, 7]: 8.6
Angle of Repose [6, 7]: 24.8 degrees
Angle of Repose, Rounded Whole Number [6, 7]: 25 degrees
Compound: CC(CCCC(C)(C)O)C1CCC2C3CC=C4CC(OS(=O)(=O)O)CCC4(C)C3CCC12C (centres unmarked) [Salt #5]

Powder flowability, overall (in words) ([1]; listed as hydroxyethylpyrrolidinium): poorer flowability
Angle of Repose Rank Order [1, 8]: 15
Hausner Ratio Rank Order [1, 8]: 10
Overall Rank Order (Total Score) [1, 8]: 25
Appearance ([2]; 2-8° C., 3 wk, listed as 25HC3S hydroxyethylpyrrolidinium): White, free flowing powder with clumping
Appearance ([2]; 60° C., 1 wk (after 3 weeks at 2-8° C.), listed as 25HC3S hydroxyethylpyrrolidinium): White, free flowing powder with clumping
Appearance after 3 weeks at 80° C. ([2]; 80° C.): completely burned
Appearance ([2]; 80° C., 3 wk, listed as 25HC3S hydroxyethylpyrrolidinium): Dark brown, melted material stuck to
Compressibility Index [3, 8]: 35
Hausner Ratio [3, 8]: 1.53
Weight loss by TGA up to 181° C. ([4]; up to 181° C.): about 0.1%
pH of the solubility sample, 0.9% Sodium Chloride [5, 8]: 8.3
pH of the solubility sample, 5% Dextrose [5, 8]: 6.4
pH of solubility sample solution in 5% dextrose ([5]; 5% dextrose (medium pH 4.7)): 6.4
pH of the solubility sample, FaSSGF [5]: 1.6
pH of the solubility sample, FaSSIF [5, 8]: 6.5
pH of the solubility sample, FeSSIF [5, 8]: 4.9
pH of the solubility sample, Water [5, 8]: 8.2
Flow Property per USP<1174> Powder Flow [6, 8]: Poor - must agitate,
Angle of Repose [6, 8]: 53.8 degrees
Angle of Repose, Rounded Whole Number [6, 8]: 54 degrees
Compound: CC(CCCC(C)(C)O)C1CCC2C3CC=C4CC(OS(=O)(=O)O)CCC4(C)C3CCC12C (centres unmarked) [Salt #6]

Powder flowability, overall (in words) ([1]; listed as meglumine): next group
Angle of Repose Rank Order ([1]; listed as 25HC3S meglumine): 5
Hausner Ratio Rank Order ([1]; listed as 25HC3S meglumine): 12
Overall Rank Order (Total Score) ([1]; listed as 25HC3S meglumine): 17
Appearance ([2]; 2-8° C., 3 wk, listed as 25HC3S meglumine): White, free flowing powder, no clumping
Appearance ([2]; 60° C., 1 wk (after 3 weeks at 2-8° C.), listed as 25HC3S meglumine): White, free flowing powder, no clumping
Appearance after 3 weeks at 80° C. ([2]; 80° C.): completely burned
Appearance ([2]; 80° C., 3 wk, listed as 25HC3S meglumine): Light brown, partially melted material
Compressibility Index ([3]; listed as 25HC3S meglumine): 36
Hausner Ratio ([3]; listed as 25HC3S meglumine): 1.56
Loss of moisture by TGA, starting with ambient ([4]; starting with ambient): about 3.2%
pH of the solubility sample, 0.9% Sodium Chloride ([5]; listed as 25HC3S meglumine): 7.2
pH of the solubility sample, 5% Dextrose ([5]; listed as 25HC3S meglumine): 7.2
pH of the solubility sample, FaSSGF [5]: 1.6
pH of the solubility sample, FaSSIF ([5]; listed as 25HC3S meglumine): 6.5
pH of the solubility sample, FeSSIF [5]: 5.0
pH of the solubility sample, Water ([5]; listed as 25HC3S meglumine): 8.5
Flow Property per USP<1174> Powder Flow ([6]; listed as 25HC3S meglumine): Fair - aid not needed
Angle of Repose ([6]; listed as 25HC3S meglumine): 37.3 degrees
Angle of Repose, Rounded Whole Number ([6]; listed as 25HC3S meglumine): 37 degrees
Compound: CC(CCCC(C)(C)O)C1CCC2C3CC=C4CC(OS(=O)(=O)O)CCC4(C)C3CCC12C (centres unmarked) [Salt #7]
